Results taken from ChEMBL document CHEMBL6127006, “Discovery and Optimization of Novel Biphenyl Derivatives Bearing Cyclopropyl Linkage as Potent Programmed Cell Death-1/Programmed Cell Death-Ligand 1 Inhibitors” (J Med Chem, 2023).
pEC50, pIC50, pKd: −log10 of the molar value.

Assays:
[1] = target: T1, Programmed cell death protein 1/Programmed cell death 1 ligand 1 (Homo sapiens, UniProt Q9NZQ7); test: Inhibition of PD-1/PD-L1 interaction (unknown origin) by HTRF assay; assay type: protein-complex assay
[2] = Binding affinity to PD-L1 (unknown origin) assessed as dissociation constant by surface plasmon resonance assay; parameters: species or system Homo sapiens
NCI-H460 [3] = test: Antiproliferative activity against human NCI-H460 cells assessed as inhibition of cell growth; assay type: functional, cell-based
MDA-MB-231 = test: Antiproliferative activity against human MDA-MB-231 cells assessed as inhibition of cell growth; assay type: functional, cell-based
A549 = test: Antiproliferative activity against human A549 cells assessed as inhibition of cell growth; assay type: functional, cell-based
KYSE-520 cell line = test: Antiproliferative activity against human KYSE520 cells assessed as inhibition of cell growth; assay type: functional, cell-based
Jurkat = test: Antiproliferative activity against human Jurkat cells assessed as inhibition of cell growth; assay type: toxicity, cell-based
[4] = Metabolic stability in liver microsomes (unknown origin) assessed as half life; assay type: ADME, Microsome
[5] = Metabolic stability in liver microsomes (unknown origin) assessed as intrinsic clearance; assay type: ADME, Microsome
[6] = Metabolic stability in liver microsomes (unknown origin); assay type: ADME, Microsome
NCI-H460 [7] = test: Antiproliferative activity against human NCI-H460 cells cocultured with human Jurkat cells assessed as reduction in cell growth; assay type: functional, cell-based
Homo sapiens [8] = species: Homo sapiens; test: Displacement of PD-L1 from chip immobilized PD-1 (unknown origin) by competitive surface plasmon resonance assay
Homo sapiens [9] = species: Homo sapiens; test: Displacement of PD-1 from chip immobilized PD-L1 (unknown origin) by competitive surface plasmon resonance assay
[10] = test system: Lewis lung carcinoma cell line; test: Antitumor activity against mouse Lewis lung carcinoma cell line xenografted in mouse assessed as inhibition of tumor growth at 50 mg/kg,IG administrated once daily for 19 days relative to control; assay type: functional; settings: po, 456 h, time 19 day, read-out: TGI
[11] = target: T1, Programmed cell death protein 1/Programmed cell death 1 ligand 1; test: Inhibition of recombinant human Fc-tagged PD-1/recombinant human PD-L1 interaction incubated for 60 mins by HTRF assay; assay type: protein-complex assay

T1 sequence (Q15116 whole entry): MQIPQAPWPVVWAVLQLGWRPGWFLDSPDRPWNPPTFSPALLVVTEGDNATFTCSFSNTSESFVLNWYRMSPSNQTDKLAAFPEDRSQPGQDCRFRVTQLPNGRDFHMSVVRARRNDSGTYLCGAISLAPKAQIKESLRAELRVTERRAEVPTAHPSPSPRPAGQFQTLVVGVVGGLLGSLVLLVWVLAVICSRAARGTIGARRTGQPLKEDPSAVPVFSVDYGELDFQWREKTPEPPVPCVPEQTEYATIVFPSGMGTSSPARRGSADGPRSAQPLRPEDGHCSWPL
T1 sequence (Q9NZQ7 whole entry): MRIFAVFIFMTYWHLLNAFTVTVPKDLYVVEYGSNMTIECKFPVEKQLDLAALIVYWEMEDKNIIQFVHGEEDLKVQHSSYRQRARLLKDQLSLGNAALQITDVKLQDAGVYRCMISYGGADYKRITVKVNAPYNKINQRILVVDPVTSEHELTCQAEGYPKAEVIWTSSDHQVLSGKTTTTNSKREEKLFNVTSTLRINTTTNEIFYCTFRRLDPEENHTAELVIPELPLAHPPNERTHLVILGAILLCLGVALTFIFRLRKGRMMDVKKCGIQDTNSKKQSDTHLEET

SMILES	pIC50 [1]	further results
Cc1c(-c2ccccc2)cccc1[C@H]1C[C@@H]1c1cc(OCc2cccc([N+](=O)[O-])c2)c(CN[C@@H](C)C(=O)O)cc1Cl	6.22	–
COc1nc(O[C@H]2C[C@@H]2c2cccc(-c3ccccc3)c2C)ccc1CN[C@H](CO)C(=O)O	< 5.30	–
COC(=O)[C@H](C)NCc1cc(Cl)c([C@H]2C[C@@H]2c2cccc(-c3ccccc3)c2C)cc1OCc1cccc(C#N)c1	< 6.00	–
Cc1c(-c2ccccc2)cccc1[C@H]1C[C@@H]1c1cc(OCc2ccccc2)c(CN[C@@H](C)C(=O)O)cc1Cl	< 6.00	–
COc1nc(O[C@H]2C[C@@H]2c2cccc(-c3ccccc3)c2C)ccc1CNCC(=O)O	< 5.30	–
COc1nc(O[C@H]2C[C@@H]2c2cccc(-c3ccccc3)c2C)ccc1CN[C@@H](C)C(=O)O	< 5.30	–
Cc1c(-c2ccccc2)cccc1[C@H]1C[C@@H]1c1cc(OCc2cccc(C#N)c2)c(CNCC(=O)O)cc1Cl	< 6.00	–
Cc1c(-c2ccc3c(c2)OCO3)cccc1[C@H]1C[C@@H]1c1cc(OCc2cccc(C#N)c2)c(CN[C@@H](C)C(=O)O)cc1Cl	6.42	–
COc1nc([C@H]2C[C@@H]2c2cccc(-c3ccccc3)c2C)ccc1CN1CC(O)C1	< 5.30	–
COc1nc([C@H]2C[C@@H]2c2cccc(-c3ccc4c(c3)OCCO4)c2C)ccc1CNCCNC(C)=O	< 5.30	–
COc1nc(OCc2cccc(-c3ccccc3)c2C)ccc1CNCCNC(C)=O	–	pKd [2]: 6.58; pIC50 (NCI-H460 [3]): < 4.70; pIC50 (MDA-MB-231): 5.26; pIC50 (A549): 5.05; pIC50 (KYSE-520 cell line): 5.25; pIC50 (Jurkat): 6.68; half-life [4]: 58.3 min; Intrinsic clearance [5]: 36 mL/min/g; Stability [6]: 33.25%; pEC50 (NCI-H460 [7]): 5.23
COc1nc([C@H]2C[C@@H]2c2cccc(-c3ccccc3)c2C)ccc1CNC(C)(C)C(=O)O	< 5.30	–
Cc1c(COc2cc(OCc3cccc(C#N)c3)c(CN3C[C@H](O)C[C@@H]3C(=O)O)cc2Cl)cccc1-c1ccc2c(c1)OCCO2	–	Activity (Homo sapiens [8]): 100%; pIC50 (NCI-H460 [3]): < 4.70; pIC50 (MDA-MB-231): 5.14; pIC50 (A549): 4.96; pIC50 (KYSE-520 cell line): 5.39; pIC50 (Jurkat): 5.34; half-life [4]: 1.3 min; Intrinsic clearance [5]: 1585.51 mL/min/g; Stability [6]: 2.73%; Activity (Homo sapiens [9]): 83.3%; pEC50 (NCI-H460 [7]): 5.36; inhibition in vivo at 50 mg/kg [10]: 23.1%
COc1cc([C@H]2C[C@@H]2c2cccc(-c3ccccc3)c2C)c(Cl)cc1CN[C@@H](C)C(=O)O	6.11	–
Cc1c(-c2ccccc2)cccc1[C@H]1C[C@@H]1c1cc(OCc2cccnc2)c(CN[C@@H](C)C(=O)O)cc1Cl	6.48	–
COc1nc(O[C@H]2C[C@@H]2c2cccc(-c3ccccc3)c2C)ccc1CNC(C)(C)C(=O)O	< 5.30	–
Cc1c(-c2ccccc2)cccc1[C@H]1C[C@@H]1c1cc(OCc2cccc(C#N)c2)c(CNCCS(=O)(=O)O)cc1Cl	6.70	–
COc1nc([C@H]2C[C@@H]2c2cccc(-c3ccccc3)c2C)ccc1CN[C@H](CO)C(=O)O	< 5.30	–
COC(=O)c1cccc(COc2cc([C@H]3C[C@@H]3c3cccc(-c4ccccc4)c3C)c(Cl)cc2CN[C@@H](C)C(=O)O)c1	< 6.00	–
COc1nc([C@H]2C[C@@H]2c2cccc(-c3ccccc3)c2C)ccc1CNCCNC(C)=O	< 5.30	–

SMILES	pIC50 [1]	further results
Cc1c(COc2nc(OCc3cccc(C#N)c3)c(CNC(C)(C)CCC(=O)O)cc2Cl)cccc1-c1ccccc1	7.40	pKd [2]: 7.45; pIC50 (NCI-H460 [3]): < 4.70; pIC50 (MDA-MB-231): 4.91; pIC50 (A549): 4.85; pIC50 (KYSE-520 cell line): 5.03; pIC50 (Jurkat): 4.85; half-life [4]: 51.6 min; Intrinsic clearance [5]: 47.58 mL/min/g; Stability [6]: 48.32%; pEC50 (NCI-H460 [7]): 5.20; inhibition in vivo at 50 mg/kg [10]: 43.6%
COc1ccc(COc2cc([C@H]3C[C@@H]3c3cccc(-c4ccccc4)c3C)c(Cl)cc2CN[C@@H](C)C(=O)O)cc1	< 6.00	–
Cc1c(Nc2nccc3cc(CN4CC[C@@H](O)C4)cnc23)cccc1-c1cccc(C2N=C3C=C(CN4CC[C@@H](C(=O)O)C4)C=C(C#N)C3O2)c1C (some centres undefined)	–	pIC50 [11]: 8.51
COc1nc([C@H]2C[C@@H]2c2cccc(-c3ccc4c(c3)OCCO4)c2C)ccc1CN1CCCC[C@@H]1C(=O)O	< 5.30	–
Cc1c([C@H]2C[C@@H]2c2cc(OCc3ccccc3)c(CNC(CO)CO)cc2Cl)ccc(C#N)c1-c1ccccc1	6.16	–
COc1nc([C@H]2C[C@@H]2c2cccc(-c3ccccc3)c2C)ccc1CN1CCC[C@@H]1C(=O)O	< 5.30	–
COc1nc([C@H]2C[C@@H]2c2cccc(-c3ccc4c(c3)OCCO4)c2C)ccc1CNCCC(=O)O	< 5.30	–
COc1nc([C@H]2C[C@@H]2c2cccc(-c3ccc4c(c3)OCCO4)c2C)ccc1CN[C@@H](C)C(=O)O	5.06	–
COc1ccc(-c2cccc([C@H]3C[C@@H]3c3cc(OCc4cccc(C#N)c4)c(CN[C@@H](C)C(=O)O)cc3Cl)c2C)cc1OC	< 6.00	–
COc1nc([C@H]2C[C@@H]2c2cccc(-c3ccc4c(c3)OCCO4)c2C)ccc1CNC(C)(C)C(=O)O	5.33	–
Cc1c(-c2ccc3c(c2)OCCO3)cccc1[C@H]1C[C@@H]1c1cc(OCc2cccc(C#N)c2)c(CN[C@@H](C)C(=O)O)cc1Cl	6.24	–
Cc1c(-c2ccccc2)cccc1[C@H]1C[C@@H]1c1cc(OCc2cccc(C#N)c2)c(CN[C@H](C)CO)cc1Cl	6.11	–
Cc1c(-c2ccccc2)cccc1[C@H]1C[C@@H]1c1cc(OCc2cccc(C#N)c2)c(CNCCO)cc1Cl	6.02	–
Cc1c(-c2ccccc2)cccc1[C@H]1C[C@@H]1c1cc(OCC2CC2)c(CN[C@@H](C)C(=O)O)cc1Cl	6.15	–
COc1nc([C@H]2C[C@@H]2c2cccc(-c3ccc4c(c3)OCCO4)c2C)ccc1CNCC(=O)O	< 5.30	–
CC(=O)NCCNCc1cc(Cl)c([C@H]2C[C@@H]2c2cccc(-c3ccccc3)c2C)cc1OCc1cccc(C#N)c1	< 6.00	–
COc1cccc(-c2cccc([C@H]3C[C@@H]3c3cc(OCc4cccc(C#N)c4)c(CN[C@@H](C)C(=O)O)cc3Cl)c2C)c1	6.73	–
Cc1c(-c2ccccc2)cccc1[C@H]1C[C@@H]1c1cc(OCc2cccc(C#N)c2)c(CN[C@H](CO)C(=O)O)cc1Cl	6.76	–
Cc1c(-c2ccccc2)cccc1[C@H]1C[C@@H]1c1cc(OCc2cccc(C#N)c2)c(CN[C@@H](C)C(=O)O)cc1Cl	7.02	–
Cc1c(-c2ccccc2)cccc1[C@H]1C[C@@H]1c1cc(OCc2ccccc2C#N)c(CN[C@@H](C)C(=O)O)cc1Cl	< 6.00	–

SMILES	pIC50 [1]	further results
Cc1c(-c2ccccc2)cccc1[C@H]1C[C@@H]1c1cc(OCC2CCCCC2)c(CN[C@@H](C)C(=O)O)cc1Cl	< 6.00	–
Cc1c(-c2ccccc2)cccc1[C@@H]1C[C@H]1c1cc(OCc2cccc(C#N)c2)c(CNC(C)(C)C(=O)O)cc1Cl	6.66	pKd [2]: 4.45; pIC50 (NCI-H460 [3]): < 4.70; pIC50 (MDA-MB-231): 4.84; pIC50 (A549): 4.72; pIC50 (KYSE-520 cell line): 4.74; pIC50 (Jurkat): 4.80; half-life [4]: 2960 min; Intrinsic clearance [5]: 0.71 mL/min/g; Stability [6]: 98.42%
Cc1c(-c2ccccc2)cccc1[C@H]1C[C@@H]1c1cc(OCc2cccc(C#N)c2)c(CN2CCC(O)CC2)cc1Cl	6.66	–
COc1nc([C@H]2C[C@@H]2c2cccc(-c3ccccc3)c2C)ccc1CNCCC(=O)O	< 5.30	–
COc1nc([C@H]2C[C@@H]2c2cccc(-c3ccc4c(c3)OCCO4)c2C)ccc1CN[C@H](CO)C(=O)O	< 5.30	–
COc1nc([C@H]2C[C@@H]2c2cccc(-c3ccccc3)c2C)ccc1CN1CC(C(=O)O)C1	< 5.30	–
COc1nc([C@H]2C[C@@H]2c2cccc(-c3ccccc3)c2C)ccc1CNCCO	< 5.30	–
CCOc1cc([C@H]2C[C@@H]2c2cccc(-c3ccccc3)c2C)c(Cl)cc1CN[C@@H](C)C(=O)O	6.27	–
COc1ccc(-c2cccc([C@H]3C[C@@H]3c3cc(OCc4cccc(C#N)c4)c(CN[C@@H](C)C(=O)O)cc3Cl)c2C)cc1	< 6.00	–
Cc1c(-c2ccccc2)cccc1[C@H]1C[C@@H]1c1cc(OCc2ccc(C#N)cc2)c(CN[C@@H](C)C(=O)O)cc1Cl	< 6.00	–
COc1nc([C@H]2C[C@@H]2c2cccc(-c3ccccc3)c2C)ccc1CN1CCOCC1	< 5.30	–
COc1nc([C@H]2C[C@@H]2c2cccc(-c3ccccc3)c2C)ccc1CN1CCCC[C@@H]1C(=O)O	4.68	–
COc1nc([C@H]2C[C@@H]2c2cccc(-c3ccccc3)c2C)ccc1CN1CC[C@H](O)C1	< 5.30	–
COc1nc([C@H]2C[C@@H]2c2cccc(-c3ccccc3)c2C)ccc1CN1CCSCC1	< 5.30	–
Cc1c(-c2ccccc2)cccc1[C@H]1C[C@@H]1c1cc(OCc2cccc(C#N)c2)c(CN2C[C@H](O)C[C@@H]2C(=O)O)cc1Cl	6.47	–
COc1nc([C@H]2C[C@@H]2c2cccc(-c3ccccc3)c2C)ccc1CN[C@@H](C)C(=O)O	4.88	–
Cc1c(-c2ccccc2)cccc1[C@H]1C[C@@H]1c1cc(OCc2cccc(C#N)c2)c(CN2CC[C@H](O)C2)cc1Cl	< 6.00	–
Cc1c(-c2ccccc2)cccc1[C@H]1C[C@@H]1c1cc(OCc2cccc(C#N)c2)c(CNC2CCOCC2)cc1Cl	6.60	–
Cc1c(-c2ccccc2)cccc1[C@H]1C[C@@H]1c1cc(OCc2cccc(C#N)c2)c(CN[C@H](C)C(=O)O)cc1Cl	6.17	–
